Source: patent publication US20030091533A1, “Regulation of mononuclear phagocyte stimulation” (priority 2001, published 2003)
Values joined by “and” are separate entries in the source; they are usually repeats but may differ in a detail not shown here. Equal entries are not always repeated. Marks after values point to notes of the source that are not given here.

What was measured:
Assay type in all cases: cell-based, human
PMA-stimulated PBM = experiment: Extracellular O2- release, SOD-inhibitable reduction of ferricytochrome c; settings: for effect on the basal oxidative burst: incubation for 24 hour, PBM without stimulation
Procedure: Extracellular release of O2-derived radicals was evaluated by the SOD-inhibitable reduction of ferricytochrome c, as previously described (Pick, Methods in Enzymology, 132:407-421 (1986)) as described infra.
Extracellular release of O2-derived radicals was evaluated by the SOD-inhibitable reduction of ferricytochrome c, as previously described (Pick, Methods in Enzymology, 132:407-421 (1986)). Briefly, after incubation with IL-9 and IL-4 (20 ng/ml) for 1 hour, 4 hour 24 hour and 96 hour, cells were washed three times in Hank's balanced salt solution without phenol red (HBSS) to remove the phenol red-containing medium and incubated at 37° C. with HBSS containing 160 μM ferricytochrome c (plus 300 IU/ml SOD as control for each condition), and concomittantly with 100 ng/ml PMA when indicated. Optical density (OD) at 550 nm was then recorded in a plate spectrometer (Titertek Multiscan Plus MKII, Labsystems, Finland) after 60 min. The released amount of superoxide anion (O2^−) was deduced from the absorbance values at 550 nm (after subtraction of control values with SOD) using the cytochrome c extinction coefficient of 21×10^3 M^−1 cm^−1 (See Massey, Biochim Biophys Acta, 34: 255(1959)). Results were expressed as nmoles O2^− per 10^6 cells per hour (FIG. 1).

LPS-stimulated AM = experiment: Intracellular oxidative burst, DCFH oxidation assay, AM; settings: for oxidative burst in LPS-stimulated AM with IFN-γ: preincubated 24 hour with cytokine 20 ng/ml in the presence of IFN-γ 200 U/ml, LPS 1 μg/ml 20 hour; for LPS-stimulated oxidative burst in AM: preincubation 24 hour with cytokine 20 ng/ml, then LPS 1 μg/ml 20 hour, without IFN-γ
Procedure: Intracellular oxidative capacity was assessed essentially as described by Bass et al., J. Immunol., 130:1910-1917 (1983) (incorporated herein by reference) as described infra.
Cells (0.2×10^6) were preincubated for 24 hour with IL-9 or IL-4 (20 ng/ml) in the presence of IFN-γ (200 U/ml) before stimulation for 20 hour with LPS (1 μg/ml). The intracellular oxidative capacity was measured through the DCFH oxidation assay as describe herein. FIG. 3 depicts the effect of IFN-γ on the inhibition mediated by IL-9 and IL-4 on the oxidative burst in LPS-stimulated PBM (A) and AM (B).
Table 1. Specific blockade of the IL-9 inhibitory effect on oxidative burst in LPS-15 stimulated PBM and AM by anti-hIL-9R mAb. Cells (0.2×10^6) were preincubated with neutralizing mAb against hIL-9R (AH9R7, 10 μg/ml), or with control mIgG2b (10 μg/ml), 1 hour before incubation with IL-9 (20 ng/ml) for 24 hour without removing mAb, and stimulated by LPS (1 μg/ml) for 20 h. Intracellular oxidative capacity was evaluated by the DCFH oxidation assay. Data are means±SEM obtained from three experiments, triplicate conditions being performed in each experiment. *P<0.001 compared with cells preincubated with IL-9 (with or without control mIgG2b).
Intracellular oxidative capacity was assessed as described by Bass et al., (Bass et al., J. Immunol. 130:1910-1917 (1983)). Briefly, the PBM and AM samples were distributed in 96-well plates with flat bottoms (Falcon) to provide 0.2×10^6cells/well. The cells were preincubated for 24 hour at 37° C., 5% CO2 with cytokines (200 u/ml for IFN-y, 20 ng/ml for IL-9 and 20 ng/ml; for IL-4) in cRPMI before being stimulated for 20 hours with LPS (1 μg/ml) without removing the cytokines. At the end of incubation with cytokines and/or LPS, cells were loaded for 15 min with 15 μM DCFH-DA in cRPMI which, after passive penetration into cells, is hydrolyzed into nonfluorescent polar DCFH and trapped inside the cells. DCFH is then oxidized into highly fluorescent DCF according to the intracellular amount of hydrogen peroxide (H2O2) produced by the respiratory burst. After three washings with phosphate-buffered saline (PBS, pH 7.4), cells were lysed in 0.1% v/v Triton X100 (Sigma) in PBS, and fluorescence was quantified in a computerized microplate spectrofluorimeter (Packard Instruments, Downers Grove, Ill., USA) at 485 nm excitation/530 nm emission wavelengths. DCF concentrations were deduced from a standard curve of known concentrations of fluorescent DCF (ranging from 0.08 to 10 μM in lysis buffer) Results were corrected for total protein concentration determined in cell lysates by the bicinchoninic acid-based method (Pierce, Rockford, Ill., USA), and were expressed as nmoles DCF/mg cell protein.

TLR4 = TLR4 surface expression on PBM by FACS; settings: for TLR4 expression (MFI): PBM preincubated 24 hour, 20 ng/ml IL-9 or IL-4, 200 U/ml IFN-γ, means±SD, medium 73 ± 2; for TLR4 expression on the surface of PBM compared with medium alone: preincubated for 24 hour
Procedure: Table 2. Cells (0.2×10^6) were preincubated for 24 hour with cytokines (20 ng/ml for IL-9 or IL-4 and 200 U/ml for IFN-γ), before the assessment of LPS receptor expression by immunostaining using anti-human CD14 mAb conjugated to FITC and anti-human TLR4 rabbit Ab followed by mouse anti-rabbit IgG (MAR-FITC). Cell-associated fluorescence was evaluated by FACS and expressed as mean fluorescence intensity (MFI). Autofluorescence of PBM was negligible (MFI: 3±1). Data are means±SD (n=3), and are representative of two experiments. *P<0.05 compared with cells preincubated with medium.
Additional stainings for CD14 and Toll-like receptor (TLR)-4 were performed on PBM preincubated for 24 hour with cytokines, using respectively FITC-conjugated anti-CD14 mAb (clone MøP9, mIgG2b, Becton Dickinson) and anti-TLR4 rabbit Ab (Santa Cruz, Calif.) followed by F (ab′)2 fragments of mouse anti-rabbit IgG (MAR)-FITC.

Question: With “IL-4: Th2 cytokine interleukin-4 used as comparator, 20 ng/ml” as the molecule, how does the “effect on O2^− release by PMA-stimulated PBM” value (“effect on O2^− release” for short) (PMA-stimulated PBM; 24 hour of preincubation) read?
Answer: Its value is “same inhibitory effect”.

Question: And the “effect on O2^− release” value (PMA-stimulated PBM; 96 hour of preincubation)?
Answer: Its value is “significantly increased”.

Question: And the “effect on the basal oxidative burst” value (PMA-stimulated PBM)?
Answer: Its value is “little effect”.

Question: What about the “oxidative burst in LPS-stimulated AM with IFN-γ” value (LPS-stimulated AM) of the same molecule?
Answer: Its value is 13.8±1.3 nmoles DCF/mg protein.

Question: What about the “LPS-stimulated oxidative burst in AM” value (LPS-stimulated AM) of the same molecule?
Answer: Its value is 6.1±0.4 nmoles DCF/mg protein.

Question: And the “TLR4 expression (MFI)” value (TLR4)?
Answer: The value was 58 ± 1* MFI.

Question: And the “TLR4 expression on the surface of PBM compared with medium alone” value (TLR4)?
Answer: The value was “down regulated”.

Question: Which results are given for “IL-9: Human IL-9 purified from SF9 insect cell cultures infected with recombinant baculovirus”?
Answer: effect on O2^− release by PMA-stimulated PBM (PMA-stimulated PBM; 96 hour of preincubation): not further increased; effect on the basal oxidative burst (PMA-stimulated PBM): little effect; O2^− release by PMA-stimulated PBM (PMA-stimulated PBM; preincubation 24 hour, 20 ng/ml, PMA 100 ng/ml, medium-preincubated cells 40.1±2.5): 23.2±0.8 nmoles 02-per 10^6 cells. h^−1; effect on O2^− release by PMA-stimulated PBM (PMA-stimulated PBM; shorter preincubation periods (1 hour, 4 hour)): not significant; Oxidative burst (nmoles DCF/mg protein) (LPS-stimulated AM; Table 1, AM, mAb 10 μg/ml 1 hour before IL-9 20 ng/ml 24 hour, LPS 1 μg/ml 20 h, means±SEM, medium 5.8 ± 0.6): 6.5 ± 0.5 nmoles DCF/mg protein; oxidative burst in LPS-stimulated AM with IFN-γ (LPS-stimulated AM): 6.6±1.2 nmoles DCF/mg protein; LPS-stimulated oxidative burst in AM (LPS-stimulated AM): 6.5±0.5 nmoles DCF/mg protein and 6.5±0.6 nmoles DCF/mg protein; TLR4 expression (MFI) (TLR4): 71 ± 4 MFI; TLR4 expression on the surface of PBM compared with medium alone (TLR4): not significantly different

B1: IFN-γ: Interferon gamma, primes mononuclear phagocytes, 200 U/ml (protein, UniProt P01579 24-161, looked up)
Interferon gamma: QDPYVKEAENLKKYFNAGHSDVADNGTLFLGILKNWKEESDRKIMQSQIVSFYFKLFKNFKDDQSIQKSVETIKEDMNVKFFNSNKKKRDDFEKLTNYSVTDLNVQRKAIHELIQVMAELSPAAKTGKRKRSQMLFRG
Question: How did the “effect on O2^− release” value (PMA-stimulated PBM; 24 hour of preincubation) turn out when B1 was run?
Answer: The value was “slightly up regulated”.

Question: And the “effect on LPS-stimulated oxidative burst in AM” value (LPS-stimulated AM; preincubation 24 hour, LPS 20 hour)?
Answer: Its value is “slightly increased”.

Question: What about the “TLR4 expression (MFI)” value (TLR4) of the same molecule?
Answer: The value was 82 ± 2* MFI.

Question: What about the “TLR4 expression on the surface of PBM compared with medium alone” value (TLR4) of the same molecule?
Answer: Its value is “increased”.
